# Measurements published in ChEMBL document CHEMBL4184170, “New Caspase-1 inhibitor by scaffold hopping into bio-inspired 3D-fragment space” (Bioorg Med Chem Lett, 2017).
# What was measured:
# Caspase-1 [1] = target: T1, Caspase-1 (Homo sapiens, UniProt P29466); test: Inhibition of caspase1 in human THP1 cells assessed as LPS/ATP-induced IL-1beta release preincubated for 24 hrs in presence of LPS measured after overnight incubation by HTRF assay; assay type: cell-based
# T1 sequence (P29466 whole entry): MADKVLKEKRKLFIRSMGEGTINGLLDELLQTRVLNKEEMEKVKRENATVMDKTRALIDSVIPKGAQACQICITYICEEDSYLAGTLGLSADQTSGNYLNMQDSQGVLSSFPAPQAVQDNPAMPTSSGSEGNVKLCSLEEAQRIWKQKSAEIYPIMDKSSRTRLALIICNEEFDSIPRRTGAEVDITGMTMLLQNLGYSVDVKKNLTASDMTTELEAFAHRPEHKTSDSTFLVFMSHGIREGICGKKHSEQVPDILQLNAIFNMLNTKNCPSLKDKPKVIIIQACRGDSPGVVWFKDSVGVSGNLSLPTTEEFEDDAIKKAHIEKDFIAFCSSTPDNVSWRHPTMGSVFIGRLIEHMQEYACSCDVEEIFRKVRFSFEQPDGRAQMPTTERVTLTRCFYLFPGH
# [2] = Lipophilicity, log D of the compound at pH 6.5 by chromatographic method; assay type: physicochemical; details: buffer
# Caspase-1 [3] = target: T1, Caspase-1; test: Inhibition of human recombinant caspase1 expressed in Escherichia coli using AC-WEHD-AMC as substrate after 20 mins by fluorescence assay
# [4] = Fraction unbound in human plasma at 5 uM after 4 hrs by LC-MS/MS-based equilibrium dialysis method; assay type: ADME, cell-free
IC50 (Caspase-1 [1]) [nM],chromatographic logD [2],IC50 (Caspase-1 [3]) [nM],"fraction unbound at 4 h, 5 µM [4]",Structure (SMILES)
86,2.1,17,0.12,CC(C)[C@H](NC(=O)c1ccc2ccccc2c1)C(=O)N1[C@H]2CC[C@](O)(CC2)[C@H]1C(=O)N[C@H]1CC(=O)OC1O (stereo partly specified)
–,–,11,–,O=C1C[C@H](NC(=O)[C@@H]2CC[C@@H]3CCCC[C@H](NC(=O)c4nccc5ccccc45)C(=O)N32)C(O)O1 (stereo partly specified)
–,–,5,–,CC(C)(C)[C@H](NC(=O)c1ccc(N)c(Cl)c1)C(=O)N1CCC[C@H]1C(=O)N[C@H]1CC(=O)OC1O (stereo partly specified)
